From ChEMBL document CHEMBL5465560, “Selectivity Literature for EUbOPEN Chemogenomic Library” (2024)

Assays:
[1] = target: RAC-beta serine/threonine-protein kinase (Homo sapiens) (UniProt P31751); assay: Selectivity interaction (Ambit KINOMEscan and KiNATiv profiling in Jurkat cells) EUB0000090b AKT2; assay type: cell-based; settings: at 1 µM
[2] = target: CDK4/Cyclin D3 (Homo sapiens) (UniProt P11802+P30281); assay: Selectivity interaction (KinomeScan (DiscoverX)) EUB0001079a CDK4; assay type: protein-complex assay; settings: at 1 µM
[3] = target: Cyclin-dependent kinase 7 (Homo sapiens, UniProt P50613); assay: Selectivity interaction (KinomeScan (DiscoverX)) EUB0001079a CDK7; settings: at 1 µM
[4] = target: T1, Mitogen-activated protein kinase kinase kinase 7 (Homo sapiens) (UniProt O43318); assay: Selectivity interaction (KinomeScan (DiscoverX)) EUB0000618a MAP3K7; settings: at 10 µM
T1 sequence (whole entry): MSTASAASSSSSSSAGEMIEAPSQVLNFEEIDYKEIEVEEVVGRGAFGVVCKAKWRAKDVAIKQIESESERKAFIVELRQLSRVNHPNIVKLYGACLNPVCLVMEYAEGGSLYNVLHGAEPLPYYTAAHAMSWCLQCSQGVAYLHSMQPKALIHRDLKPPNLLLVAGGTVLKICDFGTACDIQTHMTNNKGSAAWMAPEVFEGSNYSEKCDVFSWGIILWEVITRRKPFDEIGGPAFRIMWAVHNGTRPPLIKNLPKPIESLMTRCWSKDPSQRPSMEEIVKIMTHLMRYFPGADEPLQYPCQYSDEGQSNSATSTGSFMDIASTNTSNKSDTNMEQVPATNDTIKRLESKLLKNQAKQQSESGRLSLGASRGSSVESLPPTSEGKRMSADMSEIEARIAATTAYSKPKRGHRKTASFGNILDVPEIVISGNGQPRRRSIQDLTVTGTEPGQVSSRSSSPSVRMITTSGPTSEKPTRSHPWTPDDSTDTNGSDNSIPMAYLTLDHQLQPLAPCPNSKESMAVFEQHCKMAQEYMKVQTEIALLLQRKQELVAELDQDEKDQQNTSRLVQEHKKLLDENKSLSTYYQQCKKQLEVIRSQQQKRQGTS

[5] = target: Macrophage-stimulating protein receptor (Homo sapiens, UniProt Q04912); assay: Selectivity interaction (SelectScreen profiling (Invitrogen)) EUB0000607a MST1R; settings: at 2 µM
[6] = target: Leucine-rich repeat serine/threonine-protein kinase 2 (Homo sapiens, UniProt Q5S007); assay: (§1) Selectivity interaction (KinomeScan (DiscoverX)) EUB0000607a LRRK2; settings: at 10 µM
Sequence of Leucine-rich repeat serine/threonine-protein kinase 2 (Q5S007 whole entry): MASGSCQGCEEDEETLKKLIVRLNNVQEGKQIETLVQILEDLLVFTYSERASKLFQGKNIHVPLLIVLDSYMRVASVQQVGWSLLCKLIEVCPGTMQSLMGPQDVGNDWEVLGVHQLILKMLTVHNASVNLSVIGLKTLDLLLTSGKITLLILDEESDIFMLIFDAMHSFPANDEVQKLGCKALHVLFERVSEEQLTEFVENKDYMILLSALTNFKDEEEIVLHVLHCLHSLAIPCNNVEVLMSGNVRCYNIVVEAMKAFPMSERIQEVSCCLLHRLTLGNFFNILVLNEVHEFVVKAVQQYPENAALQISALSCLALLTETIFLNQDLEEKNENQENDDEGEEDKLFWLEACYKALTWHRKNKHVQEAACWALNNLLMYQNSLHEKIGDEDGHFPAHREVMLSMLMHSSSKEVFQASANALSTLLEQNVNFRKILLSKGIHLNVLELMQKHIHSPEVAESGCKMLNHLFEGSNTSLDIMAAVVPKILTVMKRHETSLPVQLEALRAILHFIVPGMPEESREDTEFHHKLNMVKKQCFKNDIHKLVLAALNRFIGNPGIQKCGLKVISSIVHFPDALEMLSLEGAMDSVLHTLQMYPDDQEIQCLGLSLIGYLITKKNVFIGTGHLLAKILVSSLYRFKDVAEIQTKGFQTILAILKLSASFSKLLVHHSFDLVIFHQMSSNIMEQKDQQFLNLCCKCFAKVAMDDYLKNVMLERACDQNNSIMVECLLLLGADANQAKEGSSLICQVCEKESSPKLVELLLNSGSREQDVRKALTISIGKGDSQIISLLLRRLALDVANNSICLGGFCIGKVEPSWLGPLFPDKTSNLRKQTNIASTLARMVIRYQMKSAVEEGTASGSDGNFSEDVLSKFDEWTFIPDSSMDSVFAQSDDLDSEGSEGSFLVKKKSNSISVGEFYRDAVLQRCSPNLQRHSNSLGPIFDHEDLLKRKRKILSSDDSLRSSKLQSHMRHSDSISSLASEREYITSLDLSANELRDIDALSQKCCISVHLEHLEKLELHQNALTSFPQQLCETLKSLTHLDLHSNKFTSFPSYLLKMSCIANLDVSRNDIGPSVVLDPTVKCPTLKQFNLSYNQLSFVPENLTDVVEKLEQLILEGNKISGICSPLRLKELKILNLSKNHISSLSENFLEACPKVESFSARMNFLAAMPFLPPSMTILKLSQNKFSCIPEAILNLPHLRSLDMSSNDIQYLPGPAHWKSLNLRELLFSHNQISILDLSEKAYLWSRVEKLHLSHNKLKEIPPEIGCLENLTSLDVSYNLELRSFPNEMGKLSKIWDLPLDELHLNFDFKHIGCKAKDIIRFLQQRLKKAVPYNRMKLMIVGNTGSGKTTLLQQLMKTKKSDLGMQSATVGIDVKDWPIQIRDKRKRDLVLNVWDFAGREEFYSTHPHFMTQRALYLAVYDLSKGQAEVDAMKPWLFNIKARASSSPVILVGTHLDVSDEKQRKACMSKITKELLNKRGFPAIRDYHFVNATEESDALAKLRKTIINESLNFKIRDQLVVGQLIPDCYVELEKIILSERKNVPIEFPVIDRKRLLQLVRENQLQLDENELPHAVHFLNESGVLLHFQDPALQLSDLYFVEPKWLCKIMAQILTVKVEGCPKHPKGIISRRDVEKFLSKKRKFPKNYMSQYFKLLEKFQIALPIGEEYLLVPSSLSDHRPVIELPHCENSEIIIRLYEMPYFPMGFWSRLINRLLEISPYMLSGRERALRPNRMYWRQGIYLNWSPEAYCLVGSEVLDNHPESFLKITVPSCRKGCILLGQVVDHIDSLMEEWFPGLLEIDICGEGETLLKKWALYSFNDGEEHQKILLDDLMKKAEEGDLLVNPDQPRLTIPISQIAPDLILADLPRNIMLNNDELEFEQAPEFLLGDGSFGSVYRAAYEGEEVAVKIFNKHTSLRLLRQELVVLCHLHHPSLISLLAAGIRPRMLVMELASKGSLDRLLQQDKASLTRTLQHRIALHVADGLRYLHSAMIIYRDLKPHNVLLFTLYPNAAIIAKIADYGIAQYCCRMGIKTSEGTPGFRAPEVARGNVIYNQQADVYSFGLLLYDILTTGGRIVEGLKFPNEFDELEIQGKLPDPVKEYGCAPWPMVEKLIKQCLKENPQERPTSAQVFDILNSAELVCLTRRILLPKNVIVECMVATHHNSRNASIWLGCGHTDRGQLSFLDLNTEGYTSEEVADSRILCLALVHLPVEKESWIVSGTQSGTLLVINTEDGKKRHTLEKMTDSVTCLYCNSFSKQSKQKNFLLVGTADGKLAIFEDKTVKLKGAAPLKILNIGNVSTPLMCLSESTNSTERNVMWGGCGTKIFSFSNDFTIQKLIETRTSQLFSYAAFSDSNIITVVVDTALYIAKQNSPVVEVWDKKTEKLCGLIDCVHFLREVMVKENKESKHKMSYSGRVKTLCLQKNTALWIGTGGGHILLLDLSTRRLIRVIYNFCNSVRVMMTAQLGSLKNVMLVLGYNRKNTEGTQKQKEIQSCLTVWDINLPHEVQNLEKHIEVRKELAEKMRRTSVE

[7] = tested on: Leucine-rich repeat serine/threonine-protein kinase 2 (Homo sapiens), Q5S007 [G2019S]; assay: as §1; settings: at 10 µM
[8] = tested on: Phosphatidylinositol 4,5-bisphosphate 3-kinase catalytic subunit alpha isoform (Homo sapiens), P42336 [M1043I]; settings: at 10 µM
Sequence of Phosphatidylinositol 4,5-bisphosphate 3-kinase catalytic subunit alpha isoform (Homo sapiens), P42336 [M1043I] (P42336 whole entry M1043I, canonical isoform): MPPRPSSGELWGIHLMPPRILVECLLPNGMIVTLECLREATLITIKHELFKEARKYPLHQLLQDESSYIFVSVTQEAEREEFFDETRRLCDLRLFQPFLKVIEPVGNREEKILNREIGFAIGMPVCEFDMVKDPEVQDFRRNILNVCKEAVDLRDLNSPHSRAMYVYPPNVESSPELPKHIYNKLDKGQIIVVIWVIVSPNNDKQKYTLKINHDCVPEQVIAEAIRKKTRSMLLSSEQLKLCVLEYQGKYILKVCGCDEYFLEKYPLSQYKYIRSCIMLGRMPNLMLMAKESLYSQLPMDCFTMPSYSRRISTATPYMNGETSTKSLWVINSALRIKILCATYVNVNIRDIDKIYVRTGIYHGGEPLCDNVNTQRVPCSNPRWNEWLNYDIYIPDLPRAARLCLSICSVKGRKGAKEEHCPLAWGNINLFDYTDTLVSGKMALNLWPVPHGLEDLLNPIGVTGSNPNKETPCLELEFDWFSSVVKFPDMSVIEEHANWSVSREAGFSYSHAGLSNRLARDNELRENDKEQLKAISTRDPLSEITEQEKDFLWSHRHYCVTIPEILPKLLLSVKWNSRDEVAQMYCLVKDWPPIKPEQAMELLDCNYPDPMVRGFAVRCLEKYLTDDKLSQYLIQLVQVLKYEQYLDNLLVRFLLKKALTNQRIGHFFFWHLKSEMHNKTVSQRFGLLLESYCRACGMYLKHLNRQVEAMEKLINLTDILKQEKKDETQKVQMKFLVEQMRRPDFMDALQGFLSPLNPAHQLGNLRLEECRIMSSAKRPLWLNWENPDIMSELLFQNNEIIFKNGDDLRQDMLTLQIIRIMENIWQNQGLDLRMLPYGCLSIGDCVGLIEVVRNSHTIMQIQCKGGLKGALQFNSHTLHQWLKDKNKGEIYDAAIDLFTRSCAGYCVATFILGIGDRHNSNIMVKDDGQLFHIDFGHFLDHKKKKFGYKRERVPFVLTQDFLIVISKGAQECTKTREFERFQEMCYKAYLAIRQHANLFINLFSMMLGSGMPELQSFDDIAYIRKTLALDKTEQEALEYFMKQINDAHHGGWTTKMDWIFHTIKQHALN

[9] = target: Serine/threonine-protein kinase NIM1 (Homo sapiens, UniProt Q8IY84); assay: Selectivity interaction (KinomeScan (DiscoverX)) EUB0000607a NIM1K; settings: at 10 µM
[10] = target: Tyrosine-protein kinase JAK2 (Homo sapiens, UniProt O60674); assay: Selectivity interaction (KinomeScan (DiscoverX)) EUB0001619a JAK2; settings: at 1 µM
[11] = target: Cyclin-dependent kinase 14 (Homo sapiens) (UniProt O94921); assay: Selectivity interaction (KinomeScan (DiscoverX)) EUB0000595a CDK14; settings: at 10 µM
[12] = target: Dual specificity mitogen-activated protein kinase kinase 1 (Homo sapiens, UniProt Q02750); assay: Selectivity interaction (Kinase panel (Invitrogen)) EUB0000639a MAP2K1; settings: at 200 nM
[13] = target: Serine/threonine-protein kinase 32A (Homo sapiens) (UniProt Q8WU08); assay: Selectivity interaction (KinomeScan (DiscoverX)) EUB0001049a STK32A; settings: at 1 µM
[14] = target: Calcium/calmodulin-dependent protein kinase type 1 (Homo sapiens) (UniProt Q14012); assay: Selectivity interaction (KinomeScan (DiscoverX)) EUB0001049a CAMK1; settings: at 1 µM
Sequence of Calcium/calmodulin-dependent protein kinase type 1 (Homo sapiens) (Q14012 whole entry, looked up): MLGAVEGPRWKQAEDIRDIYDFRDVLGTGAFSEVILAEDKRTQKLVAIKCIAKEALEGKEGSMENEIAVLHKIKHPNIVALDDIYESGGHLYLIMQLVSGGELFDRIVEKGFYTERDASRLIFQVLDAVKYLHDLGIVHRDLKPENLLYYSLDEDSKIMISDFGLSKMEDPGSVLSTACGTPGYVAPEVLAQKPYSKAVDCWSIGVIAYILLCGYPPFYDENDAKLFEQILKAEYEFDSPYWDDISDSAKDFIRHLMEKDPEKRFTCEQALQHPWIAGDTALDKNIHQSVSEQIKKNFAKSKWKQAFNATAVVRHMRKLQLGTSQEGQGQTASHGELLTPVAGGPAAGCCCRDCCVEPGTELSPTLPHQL

[15] = target: T2, 5-hydroxytryptamine receptor 2C (Homo sapiens) (UniProt P28335); assay: Selectivity interaction (Panel of kinases, GPCRs, ion channels and transporters (enzymatic assay)) EUB0000223bCl HTR2C
T2 sequence (whole entry): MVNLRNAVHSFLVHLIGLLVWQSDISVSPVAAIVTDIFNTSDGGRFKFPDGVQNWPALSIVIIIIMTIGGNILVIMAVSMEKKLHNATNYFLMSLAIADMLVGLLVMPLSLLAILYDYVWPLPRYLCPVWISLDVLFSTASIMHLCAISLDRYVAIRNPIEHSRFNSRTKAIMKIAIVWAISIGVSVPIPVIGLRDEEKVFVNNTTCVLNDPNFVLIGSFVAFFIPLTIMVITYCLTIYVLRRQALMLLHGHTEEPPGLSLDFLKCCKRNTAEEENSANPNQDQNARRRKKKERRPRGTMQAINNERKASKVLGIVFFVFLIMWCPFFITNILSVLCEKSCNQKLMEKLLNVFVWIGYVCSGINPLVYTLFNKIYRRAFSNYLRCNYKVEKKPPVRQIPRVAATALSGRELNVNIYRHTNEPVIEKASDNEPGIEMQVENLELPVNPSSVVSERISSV

[16] = target: Adenosine receptor A2a (Homo sapiens, UniProt P29274); assay: Selectivity interaction (Panel of kinases, GPCRs, ion channels and transporters (enzymatic assay)) EUB0000223bCl ADORA2A
Sequence of Adenosine receptor A2a (P29274 whole entry): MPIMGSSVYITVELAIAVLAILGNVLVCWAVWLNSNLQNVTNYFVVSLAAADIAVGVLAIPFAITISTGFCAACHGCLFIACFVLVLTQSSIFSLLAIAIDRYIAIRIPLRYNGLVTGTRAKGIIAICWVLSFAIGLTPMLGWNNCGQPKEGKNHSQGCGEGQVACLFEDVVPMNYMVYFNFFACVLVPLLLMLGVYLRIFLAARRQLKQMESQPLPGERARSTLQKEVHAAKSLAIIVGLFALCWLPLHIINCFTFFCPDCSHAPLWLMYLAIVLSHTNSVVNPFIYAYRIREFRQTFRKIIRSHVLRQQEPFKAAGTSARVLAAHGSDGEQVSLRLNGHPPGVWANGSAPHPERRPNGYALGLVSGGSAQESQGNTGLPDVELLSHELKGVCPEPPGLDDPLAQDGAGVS

[17] = target: 3',5'-cyclic-AMP phosphodiesterase 4B (Homo sapiens) (UniProt Q07343); assay: Selectivity interaction (Panel of kinases, GPCRs, ion channels and transporters (enzymatic assay)) EUB0000266bCl PDE4B
Sequence of 3',5'-cyclic-AMP phosphodiesterase 4B (Homo sapiens) (Q07343 whole entry): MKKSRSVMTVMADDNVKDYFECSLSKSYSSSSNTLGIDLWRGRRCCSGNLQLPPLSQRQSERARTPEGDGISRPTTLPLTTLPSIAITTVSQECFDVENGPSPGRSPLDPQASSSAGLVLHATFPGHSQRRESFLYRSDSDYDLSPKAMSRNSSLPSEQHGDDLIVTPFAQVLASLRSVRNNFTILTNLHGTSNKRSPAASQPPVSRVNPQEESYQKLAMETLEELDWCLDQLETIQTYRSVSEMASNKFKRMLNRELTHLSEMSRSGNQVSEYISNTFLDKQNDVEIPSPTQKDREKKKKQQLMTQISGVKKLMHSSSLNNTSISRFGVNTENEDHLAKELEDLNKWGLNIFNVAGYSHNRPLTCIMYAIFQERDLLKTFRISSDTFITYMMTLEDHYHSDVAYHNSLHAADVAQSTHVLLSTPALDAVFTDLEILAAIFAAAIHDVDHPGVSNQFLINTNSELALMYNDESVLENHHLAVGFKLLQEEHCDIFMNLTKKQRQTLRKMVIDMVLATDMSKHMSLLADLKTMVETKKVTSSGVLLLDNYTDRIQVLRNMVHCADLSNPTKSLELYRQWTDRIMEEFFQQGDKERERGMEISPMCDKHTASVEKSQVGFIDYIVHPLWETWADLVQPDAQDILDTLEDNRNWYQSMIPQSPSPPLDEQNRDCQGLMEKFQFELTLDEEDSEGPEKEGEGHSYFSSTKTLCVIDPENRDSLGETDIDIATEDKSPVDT

[18] = target: Tyrosine-protein kinase FRK (Homo sapiens) (UniProt P42685); assay: Selectivity interaction (Kinase panel (Z-LYTE Assay)) EUB0001632a FRK; settings: at 10 µM
[19] = target: T3, Dual specificity mitogen-activated protein kinase kinase 3 (Homo sapiens) (UniProt P46734); assay: Selectivity interaction (LanthaScreen Eu Kinase Binding Assay) EUB0001632a MAP2K3; settings: at 10 µM
T3 sequence (whole entry): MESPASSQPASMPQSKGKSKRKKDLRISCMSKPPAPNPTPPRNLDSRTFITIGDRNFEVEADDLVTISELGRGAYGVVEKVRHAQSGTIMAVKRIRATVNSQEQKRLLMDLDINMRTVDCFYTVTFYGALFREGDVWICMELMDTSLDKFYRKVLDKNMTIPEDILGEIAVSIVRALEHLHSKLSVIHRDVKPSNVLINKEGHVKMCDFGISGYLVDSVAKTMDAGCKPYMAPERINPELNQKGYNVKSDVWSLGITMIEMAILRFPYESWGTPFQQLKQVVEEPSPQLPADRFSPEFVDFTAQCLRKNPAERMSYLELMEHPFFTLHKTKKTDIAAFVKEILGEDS

[20] = target: Cyclin-dependent kinase 2/cyclin A (Homo sapiens) (UniProt P24941+P20248+P78396); assay: Selectivity interaction (Kinase panel (Z-LYTE Assay)) EUB0001632a CDK2; assay type: protein-complex assay; settings: at 10 µM
[21] = target: Serine/threonine-protein kinase mTOR (Homo sapiens, UniProt P42345); assay: Selectivity interaction (KinomeScan (DiscoverX)) EUB0000695a MTOR; settings: at 100 nM

CN(C)C/C=C/C(=O)Nc1ccc(C(=O)N2CCCC(Nc3ncc(Cl)c(-c4c[nH]c5ccccc45)n3)C2)cc1 (stereo unspecified)
% of control [1]: 80%

Nc1cnc(N2CCc3cc(S(=O)(=O)Nc4c(F)cc(Cl)cc4F)cc(N4CCCC4=O)c32)nc1 [TP-020n]
% of control [2]: 86%
% of control [3]: 100%

O[C@H]1CC[C@H](Nc2ncc3nc(Nc4c(F)cc(F)cc4F)n([C@H]4CCOC4)c3n2)CC1
% of control [4]: 99%

CNC(=O)Nc1ccc(-c2nc(N3CC4CCC(C3)O4)c3cnn(C4CCC5(CC4)OCCO5)c3n2)cc1
% of inhibition [5]: -1%
% of control [6]: 82%
% of control [7]: 65%
% of control [8]: 4.4%
% of control [9]: 100%

N#Cc1cccc(-c2c[nH]c3ncnc(N4CCOCC4)c23)c1
% of control [10]: 71%

COCC(=O)NC/C=C/c1ccc2ncnc(Nc3ccc(Oc4ccc(C)nc4)c(C)c3)c2c1 [CP-724714]
% of control [11]: 100%

CC[C@@H]1[C@H](F)C(=O)N[C@@H]1COc1nccc2cc(C(N)=O)c(OC)cc12 [ZIMLOVISERTIB]
% of inhibition [12]: 20.4%

COc1cc(Nc2nc(C)cc(-c3cnn4nc(OC)ccc34)n2)cc(C(F)(F)F)c1
% of control [13]: 63%
% of control [14]: 75%

COc1cc(C(=O)N2CC[C@@H](O)[C@@H](N)C2)cc2nc(-c3cc4ccccc4n3CC3CC3)n(C)c12
pXC50 [15]: < 4.4 M
pXC50 [16]: < 4.5 M

CCn1c(-c2nc3cc(C(=O)N4CCCC(N)C4)ccc3n2C)cc2ccccc21 (stereo unspecified)
pXC50 [17]: 4.6 M

Cn1cc(-n2cnc3c(NCc4nc5cc(Cl)c(Cl)cc5[nH]4)nc(N4CCOCC4)nc32)cn1
% of control [18]: 5.87%
% of inhibition [19]: -63.6%
% of control [20]: 3.2%

Cc1cc(F)c(C(=O)Nc2cccc(-c3nncn3C(C)C)n2)cc1-n1cnc(C2CC2)c1
% of control [21]: 100%
